Experimental data reported in patent US20130053430A1, “MODULATION OF CETP EXPRESSION” (Isis Pharmaceuticals, Inc., priority 2010, published 2013).
e = 2'-O-(2-methoxyethyl) (MOE); d = 2'-deoxy (DNA)

Key:
human CETP mRNA [1] = assay: Antisense inhibition of human CETP mRNA in primary hepatocytes from huCETP transgenic mice (Example 4); type: cell-based, mouse; conditions: cytofectin, ~24 hours
Outline: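 Primary hepatocytes from human CETP transgenic mice, 17,500 cells/well, transfected by cytofectin with 100 nM or 200 nM antisense oligonucleotide. After about 24 h, CETP mRNA quantified by real-time PCR, normalised to GAPDH, as percent inhibition versus untreated cells.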

human CETP mRNA [2] = assay: Liver CETP mRNA in huCETP transgenic mice, normal or cholesterol-enriched chow (Example 6); type: in vivo; conditions: 50 mg/kg s.c. twice per week for 6 weeks, relative to PBS control
Protocol: Male huCETP transgenic mice were maintained on a 12-hour light/dark cycle. One group of mice was fed ad libitum normal Purina mouse chow and a second group was fed 0.5% cholesterol-enriched chow (Harlan Teklad TD.97234, Harlan Laboratories, Indianapolis, Ind.). Animals were acclimated for at least 7 days in the research facility before initiation of the experiment. Antisense oligonucleotides (ASOs) were prepared in buffered saline (PBS) and sterilized by filtering through a 0.2 micron filter. Oligonucleotides were dissolved in 0.9% PBS for injection.
The normal chow-fed mice were divided into three treatment groups. The cholesterol-enriched chow-fed mice were divided into three treatment groups. […] One chow-fed group and one cholesterol-enriched chow-fed group received subcutaneous injections of saline twice weekly for 6 weeks. The saline-injected groups served as the control groups to which the corresponding oligonucleotide-treated groups were compared.
Twenty four hours after the final dose, the animals were sacrificed and liver tissue was isolated. Liver RNA was isolated for real-time PCR analysis of CETP. The primer probe set hCETP was used to measure CETP levels. As presented in Table 16, treatment with antisense oligonucleotides reduced CETP mRNA expression. The RNA expression levels were normalized to murine Cyclophilin. The results are expressed as percent inhibition of CETP mRNA, relative to the PBS control. There was no difference in inhibition of CETP mRNA levels in normal chow-fed and cholesterol-enriched chow fed mice.

CETP activity = CETP activity assay kit, dose response (Example 9); type: in vivo, human; conditions: huCETP transgenic mice, Western diet, s.c. 6 weeks
Protocol: Another group received subcutaneous injections of control oligonucleotide ISIS 141923 at a dose of 50 mg/kg/week for 6 weeks. One group of mice received subcutaneous injections of PBS for 6 weeks. The PBS-injected group served as the control group to which treatment groups were compared.
CETP activity levels were measured using a CETP activity assay kit (Roar Biomedical Inc.).

human CETP mRNA [3] = assay: Antisense inhibition of human CETP mRNA in SW872 liposarcoma cells (Example 1); type: cell-based; conditions: 150 nM antisense oligonucleotide, lipofectin, ~24 hours, relative to untreated control cells
Outline: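 SW872 cells transfected (lipofectin) with 150 nM 5-10-5 MOE gapmer (phosphorothioate, 5-methylcytosine). After about 24 h, CETP mRNA measured by qRT-PCR, normalized to GAPDH; values are % inhibition versus untreated cells.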

Substance: ISIS 349517: 5-10-5 MOE gapmer CAGCACTTTAATGCCAGTGG (sugars from the 5' end e5 d10 e5, backbone and methylation of C not given here)
- Percent inhibition of human CETP mRNA (human CETP mRNA [1]; 100 nM): 85%
- Percent inhibition of human CETP mRNA (human CETP mRNA [1]; 200 nM): 98%
- Percent inhibition of liver CETP mRNA expression (human CETP mRNA [2]; Cholesterol chow): 98%
- Percent inhibition of liver CETP mRNA expression (human CETP mRNA [2]; Normal chow): 95%
- Percent inhibition of CETP activity (CETP activity; Dose 1.5 mg/kg/wk): 33%
- Percent inhibition of CETP activity (CETP activity; Dose 5 mg/kg/wk): 59%
- Percent inhibition of CETP activity (CETP activity; Dose 15 mg/kg/wk): 76%
- Percent inhibition of CETP activity (CETP activity; Dose 50 mg/kg/wk): 77%
- % inhibition (human CETP mRNA [3]): 100%

Substance: ISIS 349511: 5-10-5 MOE gapmer CCCGACCTCCTTGGAGACTT (sugars from the 5' end e5 d10 e5, backbone and methylation of C not given here)
- Percent inhibition of human CETP mRNA (human CETP mRNA [1]; 100 nM): 74%
- Percent inhibition of human CETP mRNA (human CETP mRNA [1]; 200 nM): 95%
- Percent inhibition of liver CETP mRNA expression (human CETP mRNA [2]; Cholesterol chow): 88%
- Percent inhibition of liver CETP mRNA expression (human CETP mRNA [2]; Normal chow): 89%
- % inhibition (human CETP mRNA [3]): 66%

Substance: ISIS 141923: CCTTCCCTGAAGGTTCCTCC, 5-10-5 MOE gapmer, a control oligonucleotide which has no known murine target (sugars from the 5' end e5 d10 e5, backbone and methylation of C not given here) [reference compound]
- Percent inhibition of CETP activity (CETP activity; Dose 50 mg/kg/wk): 2%
